Assay results published in PMC3530532, “Corticosteroid-Binding Globulin: Structure-Function Implications from Species Differences” (PLoS ONE, 2012).

What was measured:
Cleaved human CBG-WT [1] = experiment: Isothermal titration calorimetry, steroid titrated to neutrophil elastase-cleaved human CBG-WT; type: binding; settings: human CBG, uncleaved vs neutrophil elastase-cleaved, ITC 25°C
Protocol: (§1) Cleavage of the RCL in human and rat CBG mutants was accomplished with 100 mU human neutrophil elastase (Sigma-Aldrich) per mg purified CBG at 30°C and monitored by SDS-PAGE. The cleavage reaction was stopped with AEBSF. The protein samples were dialyzed against ITC buffer (20 mM potassium phosphate, 50 mM NaCl, pH 7.4) and titrated with steroids in a VP-ITC microcalorimeter (Microcal, Piscataway). All solutions were filtered (0.2 µm filter pore size) and degassed for 30 min prior to the titration experiments. The sample cell was filled with protein solution containing 15 µM rat CBG or 20 µM human CBG and titrated with steroid solutions containing 150 µM and 200 µM ligand, respectively. The titrations consisted of an initial injection of 2 µL followed by 25 consecutive injections of 10 µL ligand solution at 25°C. A spacing of 240 sec between the injections was used to allow a return to the baseline. Data points from the initial injection, which are generally affected by diffusion during the initial equilibration period after experiment setup, were discarded prior to data analysis. […] The binding curve was generated by plotting the heats of injections against the ratio of ligand to protein in the cell. Integrated heat data were analyzed using nonlinear regression fit with a one-site-binding model in the Origin-7™ software provided with the VP-ITC. Changes in the free energy and entropy can be calculated using the equation: ΔG° = −RTlnK = ΔH°−TΔS°. In this equation ΔG° is the change in Gibbs free energy, R the universal gas constant, T the temperature, and K the association constant. The change in enthalpy is denoted as ΔH°, and ΔS° is the change in entropy under standard conditions. The data shown in Table 2 were obtained from single titrations of each complex.

Cleaved human CBG-WT [2] = molecular target: T1, Cleaved human CBG-WT (Homo sapiens, UniProt P08185, K148A); experiment: as above; type: binding; settings: ITC, 25°C
T1 construct: residues 11 to 383 of human CBG (Swiss-Prot entry P08185); GST (N, cleaved yes); made in house; host or cells: E. coli BL21 Star (DE3)
T1 sequence (P08185 33-366 K148A): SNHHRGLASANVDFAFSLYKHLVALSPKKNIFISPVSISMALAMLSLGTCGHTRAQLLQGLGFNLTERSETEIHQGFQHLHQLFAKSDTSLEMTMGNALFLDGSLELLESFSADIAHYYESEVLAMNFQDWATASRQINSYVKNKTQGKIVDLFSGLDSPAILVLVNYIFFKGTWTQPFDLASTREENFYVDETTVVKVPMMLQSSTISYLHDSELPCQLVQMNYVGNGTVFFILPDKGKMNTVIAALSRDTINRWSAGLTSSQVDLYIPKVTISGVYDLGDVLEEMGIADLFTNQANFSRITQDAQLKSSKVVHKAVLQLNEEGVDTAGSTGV
T1 sequence (P08185 367-405): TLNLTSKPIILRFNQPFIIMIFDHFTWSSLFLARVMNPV
Protocol: as §1

Human CBG-WT = molecular target: T2, Human CBG-WT (Homo sapiens, UniProt P08185, K148A); experiment: Isothermal titration calorimetry, steroid titrated to uncleaved human CBG-WT; type: binding; settings: ITC, 25°C
T2 construct: residues 11 to 383 of human CBG (Swiss-Prot entry P08185); GST (N, cleaved yes); made in house; host or cells: E. coli BL21 Star (DE3)
T2 sequence (P08185 33-405 K148A): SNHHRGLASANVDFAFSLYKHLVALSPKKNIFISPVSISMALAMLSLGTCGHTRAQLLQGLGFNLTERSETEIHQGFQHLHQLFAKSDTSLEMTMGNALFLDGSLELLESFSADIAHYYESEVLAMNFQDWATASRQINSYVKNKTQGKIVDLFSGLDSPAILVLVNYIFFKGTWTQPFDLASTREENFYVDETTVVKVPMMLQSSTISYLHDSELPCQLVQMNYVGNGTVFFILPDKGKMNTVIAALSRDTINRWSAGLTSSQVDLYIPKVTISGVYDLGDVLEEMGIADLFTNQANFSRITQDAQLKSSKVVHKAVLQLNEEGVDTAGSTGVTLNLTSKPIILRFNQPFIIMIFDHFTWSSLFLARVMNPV
Protocol: The coding sequences of residues 11 to 383 of human CBG (Swiss-Prot entry P08185) and residues 5 to 374 of rat CBG (P31211) were cloned into a pGEX-2T vector (GE Healthcare, Uppsala), yielding N-terminal glutathione-S-transferase (GST) fusion proteins. Mutations were introduced using a two-stage PCR procedure based on the QuikChange (Stratagene, Santa Clara) site-directed mutagenesis protocol. All experiments with human CBG were conducted with a mutant in which surface residue Lys126 was replaced by alanine in order to facilitate crystallization. Wild-type rat CBG (rat CBG-WT) and rat CBG mutants CBG-RCL1, CBG-RCL2 and CBG-RCL3 were produced to probe the function of the RCL residues in rat CBG. All gene constructs were confirmed by DNA sequencing prior to protein production.
The GST-tagged human and rat CBG variants were produced in E. coli BL21 Star™ (DE3) cells (Invitrogen, Carlsbad) using the ZYM-5052 auto-inducing medium. For each variant, 10 L of ZYM-5052 medium containing 100 µg/mL ampicillin were inoculated with an overnight culture of a single clone. The flasks were incubated at 37°C until the optical density at 600 nm reached 0.3. The temperature was then lowered to 20°C, and the cells were allowed to grow for an additional 20 h. The pellet was resuspended in PBS buffer (pH 7.4) containing 5 mM EDTA after cell harvesting (4 mL of buffer per gram of pellet).
as §1, with “The” for “Cleavage of the RCL in human and rat CBG mutants was accomplished with 100 mU human neutrophil elastase (Sigma-Aldrich) per mg purified CBG at 30°C and monitored by SDS-PAGE. The cleavage reaction was stopped with AEBSF. The”, “The change in enthalpy is denoted as ΔH°, and ΔS° is the change in entropy under standard conditions. The data shown in Table 2 were obtained from single titrations of each complex.” left out

CBG = settings: cited from earlier work

Question: Which “reduction in binding affinity upon RCL cleavage” value (Cleaved human CBG-WT [1]) does the source give for C[C@]12CCC(=O)C=C1CC[C@@H]1[C@@H]2[C@@H](O)C[C@@]2(C)[C@H]1CC[C@]2(O)C(=O)CO [Hydrocortisone] here?
Answer: The value was “ten-fold”.

Question: And the “TΔS°” value (Cleaved human CBG-WT [2]; cleaved human CBG-WT)?
Answer: Its value is -18.7 kcal/mol.

Question: And the “ΔG°” value (Cleaved human CBG-WT [2]; cleaved human CBG-WT)?
Answer: The value was -8.68 kcal/mol.

Question: What about the “ΔH°” value (Cleaved human CBG-WT [2]; cleaved human CBG-WT) of the same molecule?
Answer: Its value is -27.41 kcal/mol.

Question: What about the Kd (Cleaved human CBG-WT [2]; single titration, elastase-cleaved human CBG-WT) of the same molecule?
Answer: Its Kd is 0.442 ± 0.01 µM.

Question: And the Kd (Human CBG-WT; single titration, uncleaved human CBG-WT (K126A, E. coli produced))?
Answer: The Kd was 0.045 ± 0.007 µM.

Question: And the “TΔS°” value (Human CBG-WT; uncleaved human CBG-WT)?
Answer: The value was -26.08 kcal/mol.

Question: What about the “ΔG°” value (Human CBG-WT; uncleaved human CBG-WT) of the same molecule?
Answer: The value was -10.1 kcal/mol.

Question: What about the “ΔH°” value (Human CBG-WT; uncleaved human CBG-WT) of the same molecule?
Answer: Its value is -36.14 kcal/mol.

Question: What about the “fraction circulating free in plasma” value (CBG) of the same molecule?
Answer: The value was 4–5%.

Question: What about the “fraction of cortisol in plasma bound by CBG” value (CBG) of the same molecule?
Answer: The value was 80–90%.
